Measurements published in patent US20240208950A1, “COMPOSITIONS AND METHODS FOR TREATMENT OF CERVICAL AND OVARIAN CANCER” (SOUTH DAKOTA BOARD OF REGENTS, priority 2021, published 2024).

Assays:
[1] = test system: CaSki cells; test: Cell proliferation assay (MTS), CaSki; format: cell-based, human; conditions: 1-20 μM, 24 hours
Protocol: The effect of Br-ORM on CaSki and SiHa cells proliferation was performed using the MTS assay. Briefly, cells were seeded at a density of 5×10^3 cells per well in 96 well plate and allowed to stand overnight at 37° C. and 5% CO2 incubator. Next day, cells were treated with different concentrations of Br-ORM (1, 5, 10 and 20 μM). DMSO was used as a vehicle for the treatment of control cells. Twenty four hours post-treatment, 20 μL of MTS reagent (5 mg/mL) was added in each well and further incubated the plate for 2 hours in a CO2 incubator. Absorbance was taken after 2 hours at […] (SpectraMax M2 spectrophotometer, Molecular Devices, Sunnyvale, CA, USA). The experiment was performed in triplicates. Results were represented as percent viability with respect to the control group. […]
FIG. 13. […] Cell viability was assessed by MTS assay. […] Bar graphs indicating quantification of colony formation in CaSki (i), and SiHa (ii) cells of cervical cancer with respect to vehicle control. […] Briefly, cervical cancer cells were treated with Br-ORM (10 μM) for 24 hours and the apoptosis inducing effect of Br-ORM was analyzed by Annexin V staining. […] The equal loading of protein in each lane was determined by probing the blots with β-actin antibody (FIG. 13F). […] Br-ORM arrests cell cycle in G1/S phase as determined by flow cytometry. […]

[2] = test system: EMT markers and MMPs in CaSki cells; test: Western blot for EMT markers and MMPs, CaSki; format: cell-based, human; conditions: 24 hours
Protocol: In a further example, cell lysates and western blot analysis was conducted for EMT markers and MMPs. […] In this example, about 70% of confluent SiHa and CaSki were treated with ORM-Br ([…]) for 24 hours. Cell lysates were prepared, and western blot analysis were conducted for EMT markers and MMPs analysis. The effect of ORM-Br on protein levels of cell-cycle regulatory proteins (cyclin E1 and p27) in both CaSki and SiHa cell lines are shown.
The effect of Br-ORM on protein expression in cervical cancer cells were determined by Western blot analysis by using specific antibodies.
Epithelial mesenchymal transition (EMT) is the basic characteristic of cancer cells in which epithelial cells undergo morphologic and molecular changes that transform the cells to mesenchymal, highly metastatic (invasive and motile), and drug-resistant phenotypes. Thus, targeting EMT may reduce the invasive phenotypes of a cancer cell and have significant advantage to overcome drug resistance. It has been reported that β-catenin is involved in invasion and metastasis via inducing EMT in various tumor cells. The effect of Br-ORM treatment on various EMT markers in cervical cancer cells was evaluated. […] The effect of Br-ORM on expression of EMT markers in cervical cancer cells compared to untreated group by use of qPCR analysis was determined. […] Expression of E-cadherin in cervical cancer cells treated with Br-ORM (10 μM) for 18 hours was also determined by immunofluorescence and confocal microscopy. Images were captured under 60× magnification and representative images are presented (FIG. 14G).
FIG. 14. Br-ORM decreases migration, invasion and attenuates EMT in cervical cancer cells. Effect of Br-ORM on cell migration of cervical cancer cells as determined by agarose bead (FIG. 14A), scratch wound healing (FIG. 14B), and Boyden chamber assay (FIG. 14C). AB denotes agarose bead while MC denotes migratory cells. Arrows indicate the distance of cervical cancer (CaSki and SiHa) cells migration in control and Br-ORM treated groups (FIG. 14A(i)-(ii)). […] Closure of wound was determined and photographed using phase contrast microscopy. […] Bar graph represent the quantification of migrated CaSki cells of control and Br-ORM treated groups (FIG. 14C(ii)). […] Effect of Br-ORM treatment on invasion of CaSki cells as determined by a commercially available kit (BD Biosciences) as described in materials and methods. In brief, 24 hours post-treatment of Br-ORM, invaded cells were fixed, stained and counted. […] Bar graph represent the quantification of invaded CaSki cells of control and Br-ORM treated groups (FIG. 14D(ii)). […] Effect of Br-ORM on E-cadherin expression in cervical cancer cells as determined by confocal microscopy in control and Br-ORM treated cells after 18 hours.

## COc1ccc2c(c1)OC(C)(C)C(c1ccc(Br)cc1)C2c1ccc(OCCN2CCCC2)cc1 (stereo not drawn) [ORM-Br]
[1]
  cell viability / growth: inhibits the growth
[1]; listed as Br-ORM
  cell viability / growth: dose dependently inhibited the cell viability
[2]
  EMT associated markers (N-cadherin, vimentin and snail) expression: inhibits the EMT associated markers
  expression of E-cadherin: induced the expression of E-cadherin
  expression of MMP2 and MMP9: inhibited the expression of MMP2 and MMP9
[2]; listed as Br-ORM
  EMT associated markers (N-cadherin, vimentin and snail) expression: marked inhibition
